Source: US11440935B2, “3″,5″-dimethoxybenzoyl-3′-amino-3′-deoxy adenosine-5′-triphosphates and pharmaceutical uses thereof” (Danmir Therapeutics, LLC, priority 2018, dated 2022)
Values joined by “and” are separate entries in the source; they are usually repeats but may differ in a detail not shown here. Identical values can stand only once.

How the values were obtained:
[1] = tested on: nodose ganglion vagal sensory nerve terminals; test: ATP-induced neural action potentials in guinea-pig lung-vagus preparation ex vivo; conditions: ATP 10 μM; DT-0111 1 mM; innervated guinea-pig lung ex vivo
Procedure: The innervated guinea-pig lung preparation was prepared as was described in Undem B J, Chuaychoo B, Lee M G, Weinreich D, Myers A C, Kollarik M. Subtypes of vagal afferent C-fibres in guinea-pig lungs. J Physiol 2004; 556: 905-917; Weigand L A, Ford A P, Undem B J. A role for ATP in bronchoconstriction-induced activation of guinea pig vagal intrapulmonary C-fibres. J Physiol 2012; 590: 4109-4120. The contents of Undem et al. and Weigand et al. are incorporated herein for the purpose of the preparation of the innervated guinea-pig lung preparation. The response to ATP (10 μM; 1 ml, slowly infused into trachea and pulmonary artery) was assessed as the number of action potentials it elicited. Two control responses 15 minutes apart were recorded. There was not differences in the number of action potentials evoked between the first and second response (p>0.1). Subsequently, the lung superfused and perfused via both trachea and pulmonary artery for 15 min with increasing concentration of DT-0111 and the ATP challenge was repeated. The data were quantified as the total number of action potentials evoked and the peak frequency (Hz) as measured by the most action potentials evoked in any 1 s bin. DT-0111 was prepared in distilled water as a 10 mM solution, and aliquots were stored frozen at −20° C. (1-5 days). […]

conscious guinea-pigs [2] = test: Aerosolized ATP-induced cough in conscious free moving guinea-pigs; format: in vivo, guinea-pig
Procedure: (§1) This study was performed in 6 guinea-pigs. The housing room was constantly ventilated, and the temperature kept at ˜23° C. After quarantine, the animals were individually placed in a whole-body, unrestrained, plethysmograph chamber (model PLY3215, Buxco Electronics Inc., Troy, N.Y.) for ˜40 min once a day for two continuous days before the cough test. All GPs were weighed before the cough study.
(§2) ATP was purchased from Sigma-Aldrich (Cat #A2383-10G). Solutions of ATP used for aerosol challenge were freshly made just prior to use by dissolving the powder in 0.9% saline (NaCl) solution. Solutions of DT-0111 used for aerosol administration were freshly made by dissolving the powder in 0.9% saline (NaCl) solution.
(§3) A plethysmograph chamber was continuously flushed with normoxic (21% O2 and 79% N2) room air at 2 L/min. The same amount of air was drawn through the chamber base outlets using a Buxco bias flow regulator to keep the chamber bias flow balanced. ATP or DT solution was aerosolized by using a vibrating mesh nebulizer (Ireland Ltd., Galway Ireland, AG-AL1100). The output rate of delivered aerosol was around 0.5 ml/min with droplet size (volume median diameter) at 2.5-4.0 μm (manufacture's indications). The aerosol was mixed with airflow and directly delivered into the plethysmograph chamber. The latter was placed in a standard chemical fume hood (size: 3×6 ft) installed in a standard laboratory.
A guinea-pig was placed in the chamber again after adaptation. Following stabilization, #1 guinea-pig was exposed to aerosolized ATP at 6 mg/ml, 24 mg/ml, and then 48 mg/ml for 5 min with an interval of 30 min. The remaining animals (#2-#6 guinea-pigs) were exposed to aerosolized ATP at 48 mg/ml for 5 min. Approximately 140 min later, the same dose of ATP was repeated immediately after DT-0111 aerosol inhalation (12 mg/ml for 5 min). […] The cough sound and behavioral activities were continuously monitored and recorded before (for 3 min), during 5 min aerosol delivery, and 20 min after cessation of the delivery.
Setup of the cough recording system. The top of the plethysmograph chamber was connected with a plastic tube that was attached by the nebulizer. Normoxic air driven by the nebulizer controller was flowed into the chamber and sucked out by the bias flow regulator with the in and out flow volume balanced (2.0 L/min). To detect cough, a microphone system was mounted in the roof of the chamber to record sound; a video camera was placed outside of the chamber to monitor animal body posture; and a Buxco pneumotachograph (differential pressure transducer) attached to the chamber to record airflow. All signals generated by video camera, microphone, and pressure transducer were amplified and recorded continuously by PowerLab/8 sp (model ML 785; ADInstruments Inc., Colorado Springs, Colo.) and a computer with the LabChart Pro 7 software.
Cough count. A typical cough response, as reported before (Girard et al., Eur Respir J, 1995; Blasko et al., American Journal of Advanced Drug Delivery. 5:131-138, 2017; Corboz et al., Journal of Pharmacology and Experimental Therapeutics. 363: 348-357, 2017), was defined by the simultaneous appearance of: 1) a transient and great change in the airflow (a rapid inspiration followed by rapid expiration); 2) a typical cough sound with the peak power density at 1-2 kHz in frequency spectrum (sneeze at 3.5-6.5 kHz); and 3) animal body (head) posture and movement.

conscious guinea-pigs [3] = test: Aerosolized ATP-induced bronchoconstriction in conscious guinea-pigs (sRaw); format: in vivo, guinea-pig; conditions: n=6
Procedure: as §1, §2
as §3, with “The aerosol was mixed with airflow and directly delivered into the plethysmograph chamber. The latter was placed in a standard chemical fume hood (size: 3×6 ft) installed in a standard laboratory.” left out
The results are expressed as percent change in airway pressure (sRaw). n=6; * p<0.05, vs. ATP 0.0 mg/ml; †p<0.05, DT-0111 vs. Ctrl at the same ATP dose.

[4] = DT (12 mg/ml, 5 min) + ATP (48 mg/ml), per guinea-pig
[5] = aerosolized DT-0111 12 mg/ml, n=5

**Q.** “Sodium 3′-N-(3,5-dimethoxybenzoyl)-3′-deoxy-β-D-adenosine 5′-triphosphate [DT-0111]” was tested. Which “effect on ATP-induced action potentials” value [1] did it give?
**A.** markedly suppresses the effect of ATP

**Q.** What about the “Bout Cough T1#” value (conscious guinea-pigs [2]; [4]) of the same substance?
**A.** 0

**Q.** And the “Bout Cough T2#” value (conscious guinea-pigs [2]; [4])?
**A.** 0

**Q.** And the “Individual Cough” value (conscious guinea-pigs [2]; DT (12 mg/ml, 5 min) + ATP (48 mg/ml), per guinea-pig, listed as DT)?
**A.** 0 (2×) and 1 (2×) and 7

**Q.** And the “effect on ATP-induced bout of coughs” value (conscious guinea-pigs [2]; [5])?
**A.** blocked the bout of coughs in all tested animals

**Q.** What about the “effect on ATP-induced individual coughs” value (conscious guinea-pigs [2]; [5]) of the same substance?
**A.** little effect on individual coughs

**Q.** And the “cough evoked by the compound per se” value (conscious guinea-pigs [2]; aerosolized DT-0111 alone)?
**A.** did not evoke any cough

**Q.** What about the “effect on aerosolized ATP-induced bronchoconstriction” value (conscious guinea-pigs [3]) of the same substance?
**A.** Suppresses
